For 17 compounds, IC50 results are on record in patent publication US8586739B2, “Heterocyclic compounds and their uses” (Amgen Inc., priority 2007, dated 2013).

The subject of this experiment is human B cells. Nature of the experiment: Human B cells proliferation stimulated by anti-IgM (3H thymidine). The following applies: 72 h, purified human B cells, anti-Human IgM + CD40L-LZ. It counts as cell-based. The method, then:
Human B Cells Proliferation stimulate by anti-IgM
Isolate PBMCs from Leukopac or from human fresh blood. Isolate human B cells by using Miltenyi protocol and B cell isolation kit II.—human B cells were Purified by using autoMACS® column.
Activation of Human B Cells
Use 96 well Flat bottom plate, plate 50000/well purified B cells in B cell proffer-ation medium (DMEM+5% FCS, 10 mM Hepes, 50 μM 2-mercaptoethanol); 150 μL medium contain 250 ng/mL CD40L-LZ recombinant protein (Amgen) and 2 μg/mL anti-Human IgM antibody (Jackson ImmunoReseach Lab.#109-006-129), mixed with 50 μL B cell medium containing PI3K inhibitors and incubate 72 h at 37° C. incubator. After 72 h, pulse labeling B cells with 0.5-1 uCi/well ^3H thymidine for overnight ˜18 h, and harvest cell using TOM harvester.

For `C[C@@H](Nc1ncnc2[nH]cnc12)c1nc2cccc(C(F)(F)F)c2nc1-c1ccccc1Cl` [N-((1R)-1-(3-(2-chlorophenyl)-5-(trifluoromethyl)-2-quinoxalinyl)ethyl)-9H-purin-6-amine], where the note is “Homo sapiens, B-cell”, the IC50 is 53.4 nM.

For `C[C@H](Nc1ncnc2[nH]cnc12)c1cc2cccc(Cl)c2nc1-c1ncccn1` [N-((1S)-1-(8-chloro-2-(2-pyrimidinyl)-3-quinolinyl)ethyl)-9H-purin-6-amine], the IC50 (Homo sapiens, B-cell) was 90.4 nM.

`C[C@H](Oc1ncnc2[nH]ccc12)c1cc2cccc(Cl)c2nc1-c1ccccc1` [8-chloro-2-phenyl-3-((1S)-1-(7H-pyrrolo[2,3-d]pyrimidin-4-yloxy)ethyl)quinoline]: the IC50 (Homo sapiens, B-cell) worked out at 3.04 nM.

Regarding `C[C@H](Nc1nc(F)nc2[nH]cnc12)c1cc2cccc(Cl)c2nc1-c1ccccn1` [N-((1S)-1-(8-chloro-2-(2-pyridinyl)-3-quinolinyl)ethyl)-2-fluoro-9H-purin-6-amine], where the note is “Homo sapiens, B-cell”, the IC50 worked out at 14 nM.

For `Clc1cccc(-c2nc3c(Cl)cccc3cc2CNc2ncnc3[nH]cnc23)c1` [N-((8-chloro-2-(3-chlorophenyl)-3-quinolinyl)methyl)-9H-purin-6-amine], the IC50 (Homo sapiens, B-cell) is 411 nM.

Consider `Fc1ccc(Cl)c(-c2nc3c(Cl)cccc3nc2CNc2ncnc3[nH]cnc23)c1` [N-((5-Chloro-3-(2-chloro-5-fluorophenyl)quinoxalin-2-yl)methyl)-9H-purin-6-amine], for which the IC50 (Homo sapiens, B-cell) was determined as 165 nM.

As to `C[C@H](Nc1ncnc2[nH]cnc12)c1cc2cccc(Cl)c2nc1-c1ccccc1` [N-((1S)-1-(8-chloro-2-phenyl-3-quinolinyl)ethyl)-9H-purin-6-amine], the IC50 (Homo sapiens, B-cell) came to 2.65 nM.

Consider `C[C@@H](Nc1ncnc2[nH]cnc12)c1cc2cccc(Cl)c2nc1-c1nccs1` [N-((1R)-1-(8-chloro-2-(1,3-thiazol-2-yl)-3-quinolinyl)ethyl)-9H-purin-6-amine], for which the IC50 (Homo sapiens, B-cell) was determined as 182 nM.

Take `C[C@H](Nc1ncnc2[nH]cnc12)c1cc2ccc(F)cc2nc1-c1cc(F)cc(F)c1` [N-((1S)-1-(2-(3,5-difluorophenyl)-7-fluoro-3-quinolinyl)ethyl)-9H-purin-6-amine]: the IC50 (Homo sapiens, B-cell) is 5.15 nM.

With `C[C@H](Nc1ncnc2[nH]cnc12)c1cc2cccc(Cl)c2nc1-c1ccccc1Cl` [N-((1S)-1-(8-chloro-2-(2-chlorophenyl)-3-quinolinyl)ethyl)-9H-purin-6-amine], the IC50 (Homo sapiens, B-cell) turned out to be 3.6 nM.

Consider `Cc1cccnc1-c1nc2c(Cl)cccc2cc1CNc1ncnc2[nH]cnc12` [N-((8-chloro-2-(3-methyl-2-pyridinyl)-3-quinolinyOmethyl)-9H-purin-6-amine], for which the IC50 came out at 79 nM.

Consider `Cc1ncc(F)cc1-c1nc2c(Cl)cccc2cc1[C@H](C)Nc1ncnc2[nH]cnc12` [N-((1S)-1-(8-chloro-2-(5-fluoro-2-methyl-3-pyridinyl)-3-quinolinyl)ethyl)-9H-purin-6-amine], for which the concentration for half-maximal inhibition (IC50) (Homo sapiens, B-cell) came to 16.9 nM.

Take `C[C@H](Nc1ncnc2nc[nH]c12)c1cc2cccc(F)c2nc1-c1cc(F)cc(F)c1` [N-((1S)-1-(2-(3,5-difluorophenyl)-8-fluoro-3-quinolinyl)ethyl)-7H-purin-6-amine]: the IC50 (Homo sapiens, B-cell) was found to be 7.07 nM.

Regarding `C[C@H](Nc1ncnc2[nH]cnc12)c1cc2cccc(Cl)c2nc1-n1ccc(C(F)(F)F)n1` [N-((1S)-1-(8-chloro-2-(3-(trifluoromethyl)-1H-pyrazol-1-yl)-3-quinolinyl)ethyl)-9H-purin-6-amine], the IC50 (Homo sapiens, B-cell) amounted to 449 nM.

With `Cc1cccc(-c2nc3c(Cl)cccc3cc2[C@H](C)Nc2ncnc3[nH]cnc23)n1` [N-((1S)-1-(8-chloro-2-(6-methyl-2-pyridinyl)-3-quinolinyl)ethyl)-9H-purin-6-amine], for the setting “Homo sapiens, B-cell”, the IC50 amounted to 105 nM.

Take `Clc1cccc2cc(CNc3ncnc4[nH]cnc34)c(-c3ccccc3-c3ccccc3)nc12` [N-((2-(2-biphenylyl)-8-chloro-3-quinolinyl)methyl)-9H-purin-6-amine]: the IC50 (Homo sapiens, B-cell) was found to be 165 nM.

In the case of `C[C@H](Nc1ncnc2[nH]cnc12)c1cc2cccc(Cl)c2nc1-c1cscn1` [N-((1S)-1-(8-chloro-2-(1,3-thiazol-4-yl)-3-quinolinyl)ethyl)-9H-purin-6-amine], the IC50 (Homo sapiens, B-cell) amounted to 0.537 nM.
